Legend:
[1] = system: human T-cell leukemia cell line Jurkat cell; experiment: Growth of Jurkat cells, live cell count by trypan blue staining; format: cell-based; details: for growth inhibitory activity of isolated components on Jurkat cells: 10, 25 and 50 μM, cells counted after 24, 48, 72 hours (FIG. 7); for IC50: Homo sapiens, Jurkat, isolated components, FIG. 7, read-out: IC50 in the inhibition of the growth of the Jurkat cells
Procedure: A human T-cell leukemia cell line Jurkat cell was obtained from the Independent Administrative Institution RIKEN BioResource Center (Tsukuba-shi, Ibaraki-ken). The cell was cultured in a RPMI 1640 medium (Wako Pure Chemical Industries, Ltd., Osaka-shi, Osaka-fu) containing 10% fetal bovine serum (Thermo Fisher Scientifics, K.K., MA, USA), 100 U/mL penicillin, and 100 μg/mL streptomycin (both from Life Technologies, Carlsbad, Calif., USA) at 37° C. in an environment of 95% air and 5% CO2.
The Jurkat cells were adjusted to 1×10^5 cells/mL and seeded in a 24-well multi-well plate (Thermo Fisher Scientifics, K.K.) by 500 μL per well. […] At 24, 48, and 72 hours after the sample treatment, the cells were stained with trypan blue (Life Technologies) to count live cells using a hemacytometer.
These components were examined for the growth inhibitory effect on the Jurkat cells. The Jurkat cells were treated with each component at final concentrations of 10, 25, and 50 μM and the number of cells was counted after 24, 48, and 72 hours.

Cyclin A = experiment: Western blot of Cyclin A protein expression in Jurkat cells in S phase; format: cell-based, human; details: Phytol(+) vs Phytol(−), n=5, p<0.01 (FIG. 9)
Source text: Next, the growth inhibition of the Jurkat cells caused by phytol and lutein was further investigated. As shown in FIG. 6 and FIG. 7, the growth inhibition of the Jurkat cells was caused by the induction of the cell cycle arrest in the S phase during cell division. Thus, it was further investigated how phytol induced the cell cycle arrest in the S phase. Specifically, protein expression of a molecule that controls the S phase of the cell cycle was examined by a Western blot method. […] Results of Cyclin A and β-Actin are shown with a phytol treatment (Phytol(+)) and without a phytol treatment (Phytol(−)). Further, in FIG. 9(b), the result of the Western blot shown in FIG. 9(a) was subjected to background correction using an image analysis software imageJ and then subjected to a densitometry analysis to obtain a ratio of a band density of Cyclin A relative to that of β-Actin. In evaluating data, a value of Phytol(+) was calculated by taking a value of Phytol(−) as 1 and represented as a mean±standard deviation (n=5). Comparison between Phytol(−) and Phytol(+) was tested by a Tukey-Kramer method (p<0.01).

[2] = system: human normal lymphoid cell; experiment: Effect on growth of human normal lymphoid cell (trypan blue count); format: cell-based; details: stated with reference to FIG. 8

SMILES	growth inhibitory activity of isolated components on Jurkat cells [1]	IC50 [1]	expression of Cyclin A (band relative to β-Actin) (Cyclin A)	growth inhibitory effect on the normal cell [2]
CC(C)C/C=C/[C@@H](C)[C@H]1CC[C@H]2[C@@H]3CC=C4C[C@@H](O)CC[C@]4(C)[C@H]3CC[C@]12C [22-dehydrocholesterol]	hardly inhibited the growth of the Jurkat cells			
CC1=C[C@H](O)CC(C)(C)[C@H]1/C=C/C(C)=C/C=C/C(C)=C/C=C/C=C(C)/C=C/C=C(C)/C=C/C1=C(C)C[C@@H](O)CC1(C)C [lutein]	significant growth inhibitory activity	22.6 µM		
C/C(=C\CO)CCC[C@H](C)CCC[C@H](C)CCCC(C)C [phytol, Phytol]	significant growth inhibitory activity	12.8 µM	suppressed	does not exhibit the growth inhibitory effect

Source: US10758583B2, “Processed food and pharmaceutical composition having watermelon sprout-derived substances as main ingredients” (KINKI UNIVERSITY, priority 2016, dated 2020)
